This is an account of results in patent US20240174690A1, “ANNULATED 2-AMINO-3-CYANO THIOPHENES AND DERIVATIVES FOR THE TREATMENT OF CANCER” (BOEHRINGER INGELHEIM INTERNATIONAL GMBH, priority 2021, published 2024).

The structures appear in SMILES notation.

The subject of assay [1] is KRAS G12D-dependent Ba/F3 cells. Put plainly: Ba/F3 proliferation assay, KRAS G12D. Format: cell-based. The settings on record: Mus musculus, BaF3, 72 h, AlamarBlue. The procedure, abridged: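 Ba/F3 cells were retrovirally transduced with KRAS G12 mutant vectors, puromycin-selected (1 μg/mL) and grown without IL-3 to make them KRAS-dependent. Compounds were tested in technical duplicates, viability was read by AlamarBlue fluorescence, and values came from curve fitting.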

The next assay has as its target KRAS (G12D)::SOS1 (Homo sapiens (Human), UniProt P01116, G12D). Put plainly: KRAS::SOS1 AlphaScreen binding assay, KRAS G12D. The procedure, abridged: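 KRAS 1-169 (biotinylated avi-tag) with GST-SOS1 564-1049 and 10 µM GDP in PBS/0.1% BSA/0.05% Tween 20: WT and G13D 10 nM each with 10 nM SOS1; G12D 10 nM and G12C 7.5 nM with 5 nM SOS1. After 30 min, glutathione acceptor/streptavidin donor beads were added for 60 min at RT in the dark, then AlphaScreen read; 4-parameter IC50.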

Another assay deals with SAS cells. Put plainly: SAS CTG proliferation assay (120 h) (HNSCC, wt amplified). It counts as cell-based. The procedure, abridged:
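SAS cells plated at 300 per well in DMEM:F12 with 10% FCS and left overnight, then given compounds acoustically. After 120 h exposure, viability read by CellTiter-Glo as percent of DMSO control. IC50 from four-parameter non-linear regression.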

Sequence of KRAS (G12D)::SOS1 (P01116 other isoform, or with tags, fused parts or gaps G12D): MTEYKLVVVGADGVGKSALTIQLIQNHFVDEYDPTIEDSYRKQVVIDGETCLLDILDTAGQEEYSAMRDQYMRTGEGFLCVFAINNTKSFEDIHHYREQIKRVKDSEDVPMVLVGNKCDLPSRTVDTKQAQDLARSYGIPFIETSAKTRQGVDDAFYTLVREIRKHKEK

Consider `C[C@H](Oc1cc(N2CCNC[C@]23CCOC3)nc(-c2onc3c2CCC[C@@]32CCCc3sc(N)c(C#N)c32)n1)[C@@H]1CCCN1C` [I-12], for which the half-maximal inhibitory concentration (IC50) in assay [1] stood at 4 nM; at KRAS (G12D)::SOS1, 1 nM; in the assay with SAS cells, 218 nM.
Consider `C[C@H](Oc1cc(N2CCNC[C@@]23CCOC3)nc(-c2onc3c2CCC[C@@]32CCCc3sc(N)c(C#N)c32)n1)[C@@H]1CCCN1C` [I-13], for which the half-inhibitory concentration (IC50) in assay [1] was determined as 49 nM; on KRAS (G12D)::SOS1, 1 nM; in the assay with SAS cells, 294 nM.
Turning to `C[C@H](Oc1cc(-n2cncc3ccnc2-3)nc(-c2onc3c2CCC[C@@]32CCCc3sc(N)c(C#N)c32)n1)[C@@H]1CCCN1C` [I-14], the half-inhibitory concentration (IC50) in assay [1] was 18 nM; at KRAS (G12D)::SOS1 it was 3 nM; with SAS cells, 25 nM.
Regarding `C[C@H]1CNCCCN1c1nc(-c2onc3c2CCC[C@@]32CCCc3sc(N)c(C#N)c32)cc(C(F)(F)F)n1` [I-15], the concentration for half-maximal inhibition (IC50) in assay [1] was determined as 1130 nM; at KRAS (G12D)::SOS1 it was 348 nM.
`C[C@H](Oc1cc(-c2cn(C)nn2)nc(-c2onc3c2CCC[C@@]32CCCc3sc(N)c(C#N)c32)n1)[C@@H]1CCCN1C` [I-16]: the IC50 was found to be 32 nM in assay [1], 2 nM on KRAS (G12D)::SOS1 and 77 nM in the assay with SAS cells.
As for `CO[C@@H]1C[C@@H]([C@H](C)Oc2cc(-c3cnn(C)n3)nc(-c3onc4c3CCC[C@@]43CCCc4sc(N)c(C#N)c43)n2)N(C)C1` [I-17], the half-maximal inhibitory concentration (IC50) in assay [1] came out at 77 nM; at KRAS (G12D)::SOS1 it was 15 nM; with SAS cells, 241 nM.
With `C[C@H](Oc1cc(-n2cncn2)nc(-c2onc3c2CCC[C@@]32CCCc3sc(N)c(C#N)c32)n1)[C@@H]1CCCN1C` [I-18], the figures for the IC50 (in assay [1]; at KRAS (G12D)::SOS1; in the assay with SAS cells) were 22 nM, 3 nM and 72 nM, respectively.
`C[C@H](Oc1cc(N2Cc3cnn(C)c3C2)nc(-c2onc3c2CCC[C@@]32CCCc3sc(N)c(C#N)c32)n1)[C@@H]1CCCN1C` [I-19]: the IC50 is 165 nM in assay [1], 12 nM at KRAS (G12D)::SOS1 and 217 nM in the assay on SAS cells.
On to `C[C@H](Oc1cc(-n2cc(-c3cncs3)nn2)nc(-c2noc3c2CCC[C@@]32CCCc3sc(N)c(C#N)c32)n1)[C@@H]1CCCN1C` [II-125], for which the IC50 in assay [1] came to 109 nM; at KRAS (G12D)::SOS1, 6 nM; in the assay on SAS cells, 182 nM.
Regarding `C[C@H](Oc1cc(-n2cnc(C(=O)N(C)C)c2)nc(-c2noc3c2CCC[C@@]32CCCc3sc(N)c(C#N)c32)n1)[C@@H]1CCCN1C` [II-126], the figures for the IC50 (in assay [1]; on KRAS (G12D)::SOS1; with SAS cells) were 211 nM, 7 nM and 189 nM, respectively.
For `C[C@H](Oc1cc(-c2ccn([C@H]3CCOC3)n2)nc(-c2noc3c2CCC[C@@]32CCCc3sc(N)c(C#N)c32)n1)[C@@H]1CCCN1C` [II-127], in that order: 109 nM, 3 nM and 18 nM.
As to `C[C@H](Oc1cc(-c2ccn(Cc3ncco3)n2)nc(-c2noc3c2CCC[C@@]32CCCc3sc(N)c(C#N)c32)n1)[C@@H]1CCCN1C` [II-128], the half-inhibitory concentration (IC50) in assay [1] amounted to 83 nM; on KRAS (G12D)::SOS1 it was 2 nM; in the assay with SAS cells it was 46 nM.
On to `C[C@H](Oc1cc(-c2ccn(C[C@H]3CCOC3)n2)nc(-c2noc3c2CCC[C@@]32CCCc3sc(N)c(C#N)c32)n1)[C@@H]1CCCN1C` [II-129], for which the IC50 in assay [1] was determined as 92 nM; at KRAS (G12D)::SOS1, 3 nM; with SAS cells it was 18 nM.
In the case of `C[C@H](Oc1cc(-n2ccc(-c3cnccn3)n2)nc(-c2noc3c2CCC[C@@]32CCCc3sc(N)c(C#N)c32)n1)[C@@H]1CCCN1C` [II-130], the IC50 in assay [1] is 45 nM; at KRAS (G12D)::SOS1 it was 2 nM; in the assay with SAS cells, 176 nM.
For `C[C@H](Oc1cc(-n2nccc2-c2ccncc2)nc(-c2noc3c2CCC[C@@]32CCCc3sc(N)c(C#N)c32)n1)[C@@H]1CCCN1C` [II-131], in that order: 145 nM, 6 nM and 623 nM.
Consider `C[C@H](Oc1cc(-n2cc(C(=O)N(C)C)nn2)nc(-c2noc3c2CCC[C@@]32CCCc3sc(N)c(C#N)c32)n1)[C@@H]1CCCN1C` [II-132], for which the IC50 in assay [1] turned out to be 99 nM; on KRAS (G12D)::SOS1, 3 nM; in the assay on SAS cells, 319 nM.
The corresponding values for `C[C@H](Oc1cc(-c2cccc(C(N)=O)c2)nc(-c2noc3c2CCC[C@@]32CCCc3sc(N)c(C#N)c32)n1)[C@@H]1CCCN1C` [II-133] are 248 nM, 6 nM and 202 nM.
Turning to `C[C@H](O)Cn1ncc(-c2cc(O[C@@H](C)[C@@H]3CCCN3C)nc(-c3noc4c3CCC[C@@]43CCCc4sc(N)c(C#N)c43)n2)n1` [II-134], the IC50 in assay [1] is 1170 nM; on KRAS (G12D)::SOS1, 4 nM; in the assay with SAS cells, 35 nM.
With `C[C@H]1CNCCCN1c1cc(-c2ccn(C)n2)nc(-c2noc3c2CCC[C@@]32CCCc3sc(N)c(C#N)c32)n1` [II-140], the IC50 stood at 2240 nM in assay [1], 22 nM at KRAS (G12D)::SOS1 and 128 nM in the assay with SAS cells.
For the molecule `C[C@H](Oc1cc(-n2cc3c(n2)CCN(C)C3)nc(-c2noc3c2CCC[C@@]32CCCc3sc(N)c(C#N)c32)n1)[C@@H]1CCCN1C` [II-141], the IC50 was 14 nM in assay [1], 2 nM at KRAS (G12D)::SOS1 and 873 nM in the assay with SAS cells.
For `C[C@H]1CNCCCN1c1cc(-n2ccnc2)nc(-c2noc3c2CCC[C@@]32CCCc3sc(N)c(C#N)c32)n1` [II-142], in that order: 5860 nM, 25 nM and 6110 nM.
Turning to `C[C@H](Oc1cc(N2CCOC2=O)nc(-c2noc3c2CCC[C@@]32CCCc3sc(N)c(C#N)c32)n1)[C@@H]1CCCN1C` [II-143], the 50% inhibitory concentration (IC50) in assay [1] is 3 nM; on KRAS (G12D)::SOS1, 1 nM; in the assay with SAS cells it was 48 nM.
For `C[C@H](Oc1cc(-c2ccn(C)n2)nc(-c2noc3c2CCC[C@@]32CCCc3sc(N)c(C#N)c32)n1)[C@@H]1C[C@H](F)CN1C` [II-144], the IC50 in assay [1] is 4 nM; on KRAS (G12D)::SOS1, 14 nM; with SAS cells, 302 nM.
Take `C[C@H](Oc1cc(N2CCN(C)C3(COC3)C2)nc(-c2noc3c2CCC[C@@]32CCCc3sc(N)c(C#N)c32)n1)[C@@H]1C[C@@H](F)CN1C` [II-148]: the IC50 was 14 nM in assay [1], 1 nM on KRAS (G12D)::SOS1 and 421 nM in the assay on SAS cells.
For `C[C@H](Oc1cc(N2CCN(C)C3(CC3)C2)nc(-c2noc3c2CCC[C@@]32CCCc3sc(N)c(C#N)c32)n1)[C@@H]1C[C@@H](F)CN1C` [II-149], the IC50 in assay [1] came to 18 nM; on KRAS (G12D)::SOS1, 1 nM; in the assay on SAS cells, 849 nM.
For the molecule `C[C@H](Oc1cc(N2CCNC3(COC3)C2)nc(-c2noc3c2CCC[C@@]32CCCc3sc(N)c(C#N)c32)n1)[C@@H]1C[C@@H](F)CN1C` [II-150], the half-maximal inhibitory concentration (IC50) is 3 nM in assay [1], 1 nM on KRAS (G12D)::SOS1 and 91 nM in the assay with SAS cells.
For `C[C@H](Oc1cc(N2CCN(C)C3(CCOC3)C2)nc(-c2noc3c2CCC[C@@]32CCCc3sc(N)c(C#N)c32)n1)[C@@H]1C[C@@H](F)CN1C` (stereo partly shown) [II-151], in that order: 53 nM, 2 nM and 161 nM.
In the case of `CNC1CCN(c2cc(O[C@@H](C)[C@@H]3CCCN3C)nc(-c3noc4c3CCC[C@@]43CCCc4sc(N)c(C#N)c43)n2)CC1` [II-214], the IC50 in assay [1] came out at 1710 nM; on KRAS (G12D)::SOS1, 1 nM.
